# Patent US9968582B2, “Use of a benzoate containing composition in urea cycle disorders and neurodegenerative disorders” (Rush University Medical Center, priority 2014, dated 2018)
# Assays:
# female SJL/J mice = assay: Adoptively-transferred RR-EAE, clinical symptoms; format: in vivo; conditions: for clinical symptoms (mean clinical score): FIG. 1A
# [1] = tested on: female PLP-TCR transgenic (Tg) mice; assay: Relapsing EAE in PLP-TCR transgenic mice, clinical symptoms; format: in vivo; conditions: FIG. 1B
# encephalitogenic T cells = assay: Generation of encephalitogenic T cells in GTB-treated donor mice, adoptive transfer; format: in vivo; conditions: donor mice treated with GTB 50 mg/kg body wt/d orally from day of MBP immunization; vs untreated or vehicle-treated donors; FIG. 2
# [2] = tested on: blood-brain barrier and blood-spinal cord barrier; assay: Integrity of BBB and BSB, infrared dye (Alexa-680) entry into CNS of EAE mice; format: in vivo
# From the text: BBB and BSB are membranic structures that act primarily to protect the brain and the spinal cord, respectively from chemicals in the blood, while still allowing some essential molecules to enter. It is known that during active MS and EAE, BBB and BSB break down in a section of the brain and spinal cord, respectively due to widespread inflammation thereby allowing different blood molecules and toxins enter into the CNS. Therefore, the inventor investigated if GTB treatment modulated the integrity of BBB and BSB. The inventor injected an infrared dye (Alexa-680) via tail-vein and 2 h after the injection, live mice were scanned in an Odyssey infra-red scanner. As evidenced from FIG. 3A (first lane), infra-red signals were not visible on areas over the brain and the spinal cord in control HBSS-injected mice. […] In FIG. 3C, the top row relates to the frontal cortex, the middle row relates to the midbrain, and the last row relates to the cerebellum. In FIG. 3D, the first column relates to the control, the second column relates to EAE, the third column relates to EAE+GTB, the fourth column relates to EAE+Vehicle, and the y-axis is density of infrared signal.
# iNOS = assay: Expression of iNOS in spinal cord of EAE mice (RT-PCR); format: in vivo; conditions: FIG. 4D-F
# Experimental: (§1) Total RNA was isolated from splenic T cells and spinal cord by using the RNeasy mini kit (Qiagen, Valencia, Calif.) and from spleen and cerebellum by using the Ultraspec-II RNA reagent (Biotecx laboratories, Inc, Houston, Tex.) following manufacturer's protocol. To remove any contaminating genomic DNA, total RNA was digested with DNase. Semi-quantitative RT-PCR was carried out using a RT-PCR kit from Clonetech (Mountain View, Calif.). Briefly, 1 μg of total RNA was reverse transcribed using oligo(dT)12-18 as primer and MMLV reverse transcriptase (Clontech) in a 20 μL reaction mixture. The resulting cDNA was appropriately-diluted, and diluted cDNA was amplified using Titanium Taq DNA polymerase and following primers. Amplified products were electrophoresed on a 1.8% agarose gels and visualized by ethidium bromide staining.
# (§2) The relative expression of each gene with respect to GAPDH was measured after scanning the bands with a Fluor Chem 8800 Imaging System (Alpha Innotech, San Leandro, Calif.).
# (§3) Real-time PCR analysis was performed using the ABI-Prism7700 sequence detection system (Applied Biosystems, Foster City, Calif.). […] Data were processed by the ABI Sequence Detection System 1.6 software and analyzed by ANOVA. […]
# IL-1β = assay: Expression of IL-1β in spinal cord of EAE mice (RT-PCR); format: in vivo; conditions: FIG. 4D-F
# Experimental: as §1, §2, §3
# [3] = tested on: myelin basic protein (MBP); assay: Myelin gene mRNA expression in spinal cord of EAE mice: MBP; format: in vivo; conditions: FIG. 5C-E
# Experimental: as §1, with “The resulting cDNA was appropriately-diluted, and diluted cDNA was amplified using Titanium Taq DNA polymerase and following primers. Amplified products were electrophoresed on a 1.8% agarose gels and visualized by ethidium bromide staining.” left out
# as §2
# Real-time PCR analysis was performed using the ABI-Prism7700 sequence detection system (Applied Biosystems, Foster City, Calif.). […] Data were processed by the ABI Sequence Detection System 1.6 software and analyzed by ANOVA.
# Demyelination is the most important pathological feature in MS, which is also modeled in EAE animals. […] To confirm this finding, the inventor monitored the expression of […] myelin genes, myelin basic protein (MBP) and proteolipid protein (PLP), and observed a marked loss of mRNA expression of these genes in the spinal cord of untreated EAE mice compared to control mice (FIG. 5C-E).
# TGF-β = TGF-β ELISA in serum of EAE mice; format: in vivo; conditions: GTB from 8 dpt, sacrificed 16 dpt; FIG. 6
# From the text: Production of TGF-β in culture supernatant was monitored by ELISA using assay kit from eBioscience (San Diego, Calif.).
# Because TGF-β is known to protect mice from EAE, the inventor examined the level of TGF-β in serum of GTB-treated and untreated EAE mice by ELISA. EAE mice receiving GTB or vehicle from 8 dpt were sacrificed on 16 dpt followed by analysis of TGF-β in serum. The inventor observed marked decrease in TGF-β in the serum of EAE mice as compared to control mice (FIG. 6).
# [4] = tested on: Tyrosine hydroxylase (TH); assay: MPTP mouse model of PD, Western blot of nigral TH; format: in vivo, mice; conditions: FIG. 9A-B
# Experimental: Six- to eight-week old C57BL/6 mice were purchased from Harlan (Indianapolis, Ind.). For acute MPTP intoxication, mice received four intraperitoneal (i.p.) injections of MPTP-HCl (18 mg/kg of free base; Sigma Chemical Co., St. Louis, Mo.) in saline at 2-h intervals. Control animals received only saline.
# GTB was mixed in 0.5% methylcellulose (MC) and from 3 h after the last injection of MPTP, mice were gavaged 100 μL GTB-mixed MC once daily using gavage needle. Therefore, control MPTP mice received only MC as vehicle.
# Immunoblot analysis for DJ-1 and TH was carried out. Briefly, cell homogenates were electrophoresed, proteins were transferred onto a nitrocellulose membrane, and bands were visualized with an Odyssey infrared scanner after immunolabeling with respective primary antibodies followed by infra-red fluorophore-tagged secondary antibody (Invitrogen).
# Tyrosine hydroxylase (TH), the key enzyme responsible for the production of dopamine, is present in dopaminergic neurons. MPTP-intoxication led to approximately 60% loss of nigral TH (FIG. 9A-B) compared with saline-injected controls.
# [5] = Observation of drug related side effects in mice; format: in vivo; conditions: any of the mice used during the course of the study
structure (smiles),measurement,setting,value
"O=C(OCC(COC(=O)c1ccccc1)OC(=O)c1ccccc1)c1ccccc1 [GTB, glyceryl tribenzoate]",clinical symptoms (mean clinical score),female SJL/J mice; GTB 25 mg/kg body wt/d by gavage once daily from 8 dpt,significantly inhibited clinical symptoms
same,clinical symptoms (mean clinical score),"female SJL/J mice; GTB 50 mg/kg body wt/d by gavage from 8 dpt, acute and chronic phases",dramatic inhibition of clinical symptoms
same,clinical symptoms (mean clinical score),female SJL/J mice; GTB 100 mg/kg body wt/d by gavage from 8 dpt,less potent than either 50 mg/kg body wt/d
same,clinical symptoms of adoptively-transferred RR-EAE,"female SJL/J mice; GTB treatment, TGF-β blocking experiment, FIG. 8",ameliorated clinical symptoms
same,dose that significantly suppressed clinical symptoms of EAE,"female SJL/J mice; dose-dependent study, oral GTB",≥ 25 mg/kg body wt/d
same,dose of maximum inhibition of EAE,[1]; GTB from 8 dpi,50 mg/kg body wt/d
same,clinical symptoms (mean clinical score),"[1]; different doses of GTB from 8 dpi, 10 μg/mouse PLP139-151",inhibitory effect of GTB on the clinical symptoms was clearly observed
same,clinical symptoms and disease severity of recipient mice,encephalitogenic T cells,significantly reduced clinical symptoms and disease severity
same,"entry of infra-red dye into the CNS, live mice","[2]; scan 2 h after tail-vein injection of Alexa-680, FIG. 3A",strongly inhibited the entry of infra-red dye into the CNS
same,"entry of infra-red dye into spinal cord and parts of the brain, dissected tissue","[2]; spinal cord, frontal cortex, midbrain, cerebellum, FIG. 3B-D",markedly attenuated the entry of infra-red dye
same,expression of iNOS in the spinal cord,iNOS,dramatically reduced the expression
same,expression of IL-1β in the spinal cord,IL-1β,dramatically reduced the expression
same,MBP mRNA expression in the spinal cord,[3],significant restoration of myelin gene mRNA expression
same,TGF-β in serum,TGF-β,protected TGF-β
same,nigral TH,[4]; GTB 25 mg/kg body wt/d,protection was evident
same,nigral TH,[4]; oral GTB in MPTP-intoxicated mice,protected nigral TH in a dose-dependent manner
same,"drug related side effect (e.g. hair loss, weight loss, untoward infection)",[5],did not notice any drug related side effect
